biological target: T1, human insuline receptor (Ins-R) (Homo sapiens, UniProt P06213); experiment: InsR HTRF assay (selectivity vs. Tie2 assay 2); type: biochemical; conditions: IC50 assay 4/IC50 assay 2
T1 construct: GST-tagged recombinant kinase domain of the human insuline receptor; GST; purchased ProQinase, Freiburg, Germany; host or cells: SF-9 cells
Procedure: Inhibitory activity of compounds against the kinase activity of the insulin receptor was quantified employing the Ins-R HTRF assay as described in the following paragraphs.
GST-tagged recombinant kinase domain of the human insuline receptor (Ins-R, purchase from ProQinase, Freiburg, Germany) expressed in SF-9 cells was used as kinase. As substrate for the kinase reaction biotinylated poly-(Glu,Tyr) (Cis biointernational, France) was used.
Ins-R was incubated for 20 min at 22° C. in the presence of different concentrations of test compounds in 5 μl assay buffer [50 mM Hepes/NaOH pH 7, 15 mM MnCl2, 1 mM dithiothreitol, 0.1 μM sodium ortho-vanadate, 0.015% (v/v) PEG20000, 10 μM adenosine-tri-phosphate (ATP), 0.3 μg/ml substrate, 1% (v/v) dimethylsulfoxide]. The concentration of Ins-R was adjusted depending of the activity of the enzyme lot and was chosen appropriate to have the assay in the linear range, typical concentrations were in the range of 10 pg/μL. The reaction was stopped by the addition of 5 μl of a solution of HTRF detection reagents (0.1 μM streptavidine-XLent and 1 nM PT66-Eu-Chelate, an europium-chelate labelled anti-phospho-tyrosine antibody from Perkin Elmer) in an aqueous EDTA-solution (80 mM EDTA, 0.2% (w/v) bovine serum albumin in 50 mM HEPES/NaOH pH 7.0).
The resulting mixture was incubated 1 h at 22° C. to allow the binding of the biotinylated phosphorylated peptide to the streptavidine-XLent and the PT66-Eu-Chelate. Subsequently the amount of phosphorylated substrate was evaluated by measurement of the resonance energy transfer from the PT66-Eu-Chelate to the streptavidine-XLent. Therefore, the fluorescence emissions at 620 nm and 665 nm after excitation at 350 nm was measured in a HTRF reader, e.g. a Rubystar (BMG Labtechnologies, Offenburg, Germany) or a ViewLux (Perkin-Elmer). The ratio of the emissions at 665 nm and at […] was taken as the measure for the amount of phosphorylated substrate. The data were normalised (enzyme reaction without inhibitor=0% inhibition, all other assay components but no enzyme=100% inhibition) and IC50 values were calculated by a 4 parameter fit using an inhouse software.

T1 sequence (P06213 1023-1298 limits assumed): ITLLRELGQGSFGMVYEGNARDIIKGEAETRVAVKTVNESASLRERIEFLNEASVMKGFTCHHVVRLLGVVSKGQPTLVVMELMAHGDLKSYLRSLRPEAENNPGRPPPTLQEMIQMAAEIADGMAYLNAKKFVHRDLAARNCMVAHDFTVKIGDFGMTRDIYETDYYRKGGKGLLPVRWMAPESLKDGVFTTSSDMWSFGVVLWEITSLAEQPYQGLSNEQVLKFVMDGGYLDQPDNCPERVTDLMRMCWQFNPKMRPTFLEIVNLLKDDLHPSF

Selectivity vs. InsR	SMILES
>50fold	CN1CCN(Cc2ccc(NC(=O)Nc3ccc(-c4cncc5c4cnn5CCO)cc3)cc2C(F)(F)F)CC1 [Example 8.6, 1-{4-[1-(2-Hydroxy-ethyl)-1H-pyrazolo[3,4-c]pyridin-4-yl]-phenyl}-3-[4-(4-methyl-piperazin-1-ylmethyl)-3-trifluoromethyl-phenyl]-urea]
>50fold	COCCn1ncc2c(-c3ccc(NC(=O)Nc4cccc(C(F)(F)F)c4)cc3)cncc21 [Example 12.1, 1-{4-[1-(2-Methoxy-ethyl)-1H-pyrazolo[3,4-c]pyridin-4-yl]-phenyl}-3-(3-trifluoromethyl-phenyl)-urea]
>50fold	Cn1ncc2c(-c3ccc(NC(=O)Nc4cccc(C(F)(F)F)c4)cc3)cncc21 [Example 1.4, 1-[4-(1-Methyl-1H-pyrazolo[3,4-c]pyridin-4-yl)-phenyl]-3-(3-trifluoromethyl-phenyl)-urea]
>50fold	CN(C)c1ccc(C(F)(F)F)cc1NC(=O)Nc1ccc(-c2cncc3c2cnn3C)cc1 [Example 13.11, 1-(2-Dimethylamino-5-trifluoromethyl-phenyl)-3-[4-(1-methyl-1H-pyrazolo[3,4-c]pyridin-4-yl)-phenyl]-urea]

The next lines start with the compound.

SMILES	Selectivity vs. InsR
CC(C)c1cc(NC(=O)Nc2ccc(-c3cncc4c3cnn4C)cc2F)n(-c2cccc(F)c2)n1 [Example 15.2, 1-[2-Fluoro-4-(1-methyl-1H-pyrazolo[3,4-c]pyridin-4-yl)-phenyl]-3-[2-(3-fluoro-phenyl)-5-isopropyl-2H-pyrazol-3-yl]-urea]	>50fold
Cn1ncc2c(-c3ccc(NC(=O)Nc4cc(C(C)(C)C)on4)cc3)cncc21 [Example 13.2, 1-(5-tert-Butyl-isoxazol-3-yl)-3-[4-(1-methyl-1H-pyrazolo[3,4-c]pyridin-4-yl)-phenyl]-urea]	>50fold
Cn1ncc2c(-c3ccc(NC(=O)Nc4cc(C(F)(F)F)ccc4F)c(F)c3)cncc21 [Example 6.3, 1-[2-Fluoro-4-(1-methyl-1H-pyrazolo[3,4-c]pyridin-4-yl)-phenyl]-3-(2-fluoro-5-trifluoromethyl-phenyl)-urea]	>50fold
CCn1ncc2c(-c3ccc(NC(=O)Nc4cccc(C(F)(F)F)c4)c(F)c3)cncc21 [Example 11.1, 1-[4-(1-Ethyl-1H-pyrazolo[3,4-c]pyridin-4-yl)-2-fluoro-phenyl]-3-(3-trifluoromethyl-phenyl)-urea]	>50fold
Cn1ncc2c(-c3ccc(NC(=O)Nc4cc(C(C)(C)C)nn4-c4ccccc4)cc3)cncc21 [Example 13.4, 1-(5-tert-Butyl-2-phenyl-2H-pyrazol-3-yl)-13-[4-(1-methyl-1H-pyrazolo[3,4-c]pyridin-4-yl)-phenyl]-urea]	>50fold
Cn1ncc2c(-c3ccc(NC(=O)Nc4cc(C(F)(F)F)ccn4)c(F)c3)cncc21 [Example 14.5, 1-[2-Fluoro-4-(1-methyl-1H-pyrazolo[3,4-c]pyridin-4-yl)-phenyl]-3-(4-trifluoromethyl-pyridin-2-yl)-urea]	>50fold
CCc1cccc(NC(=O)Nc2ccc(-c3cncc4c3cnn4C)cc2)c1 [Example 1.5, 1-(3-Ethyl-phenyl)-3-[4-(1-methyl-1H-pyrazolo[3,4-c]pyridin-4-yl)-phenyl]-urea]	>50fold

Source: patent US20090062273A1, “3-H-pyrazolopyridines and salts thereof, pharmaceutical compositions comprising same, methods of preparing same and uses of same” (priority 2006, published 2009)
